Assay results as given in ChEMBL document CHEMBL1154923 (J Med Chem, 2010).

Target: T1, Rhodopsin kinase GRK7 (Homo sapiens, UniProt Q8WTQ7)
T1 sequence (Q8WTQ7 whole entry): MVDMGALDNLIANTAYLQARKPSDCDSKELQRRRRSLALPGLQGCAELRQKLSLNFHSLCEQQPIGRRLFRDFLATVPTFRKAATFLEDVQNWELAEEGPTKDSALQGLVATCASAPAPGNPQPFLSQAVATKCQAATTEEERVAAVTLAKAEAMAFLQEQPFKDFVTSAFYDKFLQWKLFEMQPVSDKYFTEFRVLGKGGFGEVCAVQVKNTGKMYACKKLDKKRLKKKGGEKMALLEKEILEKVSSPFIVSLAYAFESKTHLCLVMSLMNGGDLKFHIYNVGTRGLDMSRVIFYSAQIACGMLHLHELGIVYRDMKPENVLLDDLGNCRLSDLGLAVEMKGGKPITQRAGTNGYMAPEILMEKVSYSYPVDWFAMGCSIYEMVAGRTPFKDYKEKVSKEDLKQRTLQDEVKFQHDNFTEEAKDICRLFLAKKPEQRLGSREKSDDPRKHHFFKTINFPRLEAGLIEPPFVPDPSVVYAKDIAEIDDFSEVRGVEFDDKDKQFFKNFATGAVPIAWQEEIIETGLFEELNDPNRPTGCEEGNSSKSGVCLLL
Assay: Inhibition of GRK7-mediated bovine tubulin phosphorylation by scintillation counting

O=C(N[C@@H]1CNCCC[C@H]1OC(=O)c1cc(O)c(C(=O)c2c(O)cccc2C(=O)O)c(O)c1)c1ccc(O)cc1 [BALANOL]
IC50: 0.18 µM
